{
  "source": "patent US10676514B2",
  "about": "“CDCA1-derived peptide and vaccine containing same” (ONCOTHERAPY SCIENCE, INC., priority 2014, dated 2020)",
  "key": {"[1]": {"test_system": "peptide-pulsed C1R-A11 cells", "experiment": "IFN-gamma ELISPOT assay of peptide-induced CTLs (HLA-A*1101)", "assay_type": "cell-based, human", "details": "CTLs induced from HLA-A*1101-positive donors, peptide-pulsed C1R-A11 vs control", "text": "Monocyte-derived dendritic cells (DCs) were used as the antigen-presenting cell to induce a cytotoxic T lymphocyte (CTL) response against peptides presented on human leukocyte antigens (HLAs). As described in the other sections, DCs were generated in vitro (Nakahara S et al., Cancer Res 2003, 63(14): 4112-8). Specifically, peripheral-blood mononuclear cells isolated from healthy volunteers (HLA-A*1101-positive) with the Ficoll-Paque plus solution (Pharmacia) were separated by attaching to plastic tissue culture dishes (Becton Dickinson) and concentrated as a monocyte fraction. The monocyte-concentrated population was cultured in the presence of 1000 IU/ml granulocyte macrophage colony-stimulating factor (R&D System) and 1000 IU/ml interleukin(IL)-4 (R&D System) in an AIM-V medium (Invitrogen) containing 2% heat-inactivated autologous serum (AS). After seven days of culturing, the cytokine-induced DCs were pulsed with 20 micro-g/ml each of the synthesized peptides in an AIM-V medium at 37 degrees C. for three hours in the presence of 3 micro-g/ml beta 2-microglobulin. The generated cells appeared to express on their cell surface DC-associated molecules such as CD80, CD83, CD86 and HLA class II (data not shown). Next, these peptide-pulsed DCs were inactivated by X-ray irradiation (20 Gy), and mixed in a 1:20 ratio with autologous CD8^+ T cells obtained by positive selection using the CD8 Positive Isolation Kit (Dynal). These culture products were seeded in a 48-well plate (Corning). Each well was made to contain 1.5×10^4 peptide-pulsed DCs, 3×10^5 CD8^+ T cells and 10 ng/ml IL-7 (R&D System) in 0.5 ml of the AIM-V/2% AS medium. Three days later, these culture products were added with a final concentration of 20 IU/ml IL-2 (CHIRON). On day 7 and day 14, T cells were further stimulated with peptide-pulsed autologous DCs. The DCs were prepared every time by the same method as above. On day 21, after the third peptide stimulation, CTLs were examined against the peptide-pulsed C1R-A11 cells by a human interferon (IFN)-gamma enzyme-linked immunospot (ELISPOT) assay (Tanaka H et al., Br J Cancer 2001, 84(1): 94-9; Umano Y et al., Br J Cancer 2001, 84(8): 1052-7; Uchida N et al., Clin Cancer Res 2004, 10(24): 8577-86; Suda T et al., Cancer Sci 2006, 97(5): 411-9; Watanabe T et al., Cancer Sci 2005, 96(8): 498-506).\n(§1) Specifically, peptide-pulsed C1R-A11 (1×10^4 cells/well) was prepared as the stimulator cell. The induced CTLs, i.e., CTL lines and CTL clones, were used as the responder cell. The IFN-gamma ELISPOT assay and IFN-gamma ELISA were performed according to the manufacturer's manual."}, "peptide-pulsed C1R-A11": {"test_system": "peptide-pulsed C1R-A11", "experiment": "IFN-gamma ELISA of CTL lines and CTL clones (HLA-A*1101)", "assay_type": "cell-based, human", "details": "for IFN-gamma production of CTL lines: peptide-pulsed vs non-pulsed target cells, HLA-A*1101", "procedure": "CTLs were propagated in culture using methods similar to those disclosed by Riddell et al. (Walter E A et al., N Engl J Med 1995, 333(16): 1038-44; Riddell S R et al., Nat Med 1996, 2(2): 216-23). The CTLs were co-cultured in a total of 25 ml AIM-V medium containing 5% AS (AIM-V/5% AS) and 40 ng/ml anti-CD3 antibody with two types of Mitomycin C-treated human B lymphoblastoid cell lines at 5×10^6 cells/flask. One day after beginning of the culturing, 120 IU/ml IL-2 was added to the culture. On days 5, 8 and 11, a fresh AIM-V/5% AS medium containing 30 IU/ml IL-2 was added to the culture (Tanaka H et al., Br J Cancer 2001, 84(1): 94-9; Umano Y et al., Br J Cancer 2001, 84(8): 1052-7; Uchida N et al., Clin Cancer Res 2004, 10(24): 8577-86; Suda T et al., Cancer Sci 2006, 97(5): 411-9; Watanabe T et al., Cancer Sci 2005, 96(8): 498-506).\nDilution of CTLs was carried out to make 0.3, 1 and 3 cells/well in 96 round-bottomed microtiter plates (Nalge Nunc International). The CTLs were co-cultured with two types of Mitomycin C-treated human B lymphoblastoid cell lines at 1×10^4 cells/well in a total of 150 micro-l/well AIM-V/5% AS medium with 30 ng/ml anti-CD3 antibody and 125 IU/ml IL-2. Ten days later, IL-2 was added to the medium at 50 micro-l/well to reach a final concentration of 125 IU/ml. On day 14, the CTL activity was tested, and the CTL clones were propagated using the same method as described above (Uchida N et al., Clin Cancer Res 2004, 10(24): 8577-86; Suda T et al., Cancer Sci 2006, 97(5): 411-9; Watanabe T et al., Cancer Sci 2005, 96(8): 498-506).\nas §1"}},
  "note": "Entries after “also recorded” stand apart in the source; their conditions may differ.",
  "data": [
    {"sequence": "AAHQEALMK (a peptide derived from CDCA1) [SEQ ID NO: 13]", "values": [
      {"measurement": "peptide-specific CTL activity (IFN-gamma production)", "setting": "[1]; listed as CDCA1-A1-9-157", "result": "potent IFN-gamma production"},
      {"measurement": "peptide-specific CTL activity (IFN-gamma production)", "setting": "[1]; listed as CDCA1-A11-9-157", "result": "potent IFN-gamma production; also recorded: significant specific CTL activity"},
      {"measurement": "IFN-gamma production of CTL lines", "setting": "peptide-pulsed C1R-A11", "result": "potent IFN-gamma production"}
    ]},
    {"sequence": "CQLEVQLYQK (a peptide derived from CDCA1) [SEQ ID NO: 39]", "values": [
      {"measurement": "peptide-specific CTL activity (IFN-gamma production)", "setting": "[1]; listed as CDCA1-A11-10-289", "result": "potent IFN-gamma production; also recorded: significant specific CTL activity"},
      {"measurement": "peptide-specific CTL activity (IFN-gamma production)", "setting": "[1]; listed as CDCA1A11-10-289", "result": "potent IFN-gamma production"}
    ]},
    {"sequence": "GADGKNLTK (a peptide derived from CDCA1) [SEQ ID NO: 21]", "values": [
      {"measurement": "peptide-specific CTL activity (IFN-gamma production)", "setting": "[1]; listed as CDCA1-A11-9-25", "result": "potent IFN-gamma production; also recorded: significant specific CTL activity"},
      {"measurement": "IFN-gamma production of CTL lines", "setting": "peptide-pulsed C1R-A11", "result": "potent IFN-gamma production"}
    ]},
    {"sequence": "IVDSPEKLK (a peptide derived from CDCA1) [SEQ ID NO: 14]", "values": [
      {"measurement": "peptide-specific CTL activity (IFN-gamma production)", "setting": "[1]; listed as CDCA1-A11-9-244", "result": "potent IFN-gamma production; also recorded: significant specific CTL activity"}
    ]},
    {"sequence": "IVLQEGNSQK (a peptide derived from CDCA1) [SEQ ID NO: 40]", "values": [
      {"measurement": "peptide-specific CTL activity (IFN-gamma production)", "setting": "[1]; listed as CDCA1-A11-10-203", "result": "potent IFN-gamma production; also recorded: significant specific CTL activity"}
    ]},
    {"sequence": "KAAEDSYAK (a peptide derived from CDCA1) [SEQ ID NO: 9]", "values": [
      {"measurement": "peptide-specific CTL activity (IFN-gamma production)", "setting": "[1]; listed as CDCA1-A11-9-439", "result": "potent IFN-gamma production; also recorded: significant specific CTL activity"},
      {"measurement": "IFN-gamma production of CTL lines", "setting": "peptide-pulsed C1R-A11", "result": "potent IFN-gamma production"}
    ]},
    {"sequence": "KILTGADGK (a peptide derived from CDCA1) [SEQ ID NO: 12]", "values": [
      {"measurement": "peptide-specific CTL activity (IFN-gamma production)", "setting": "[1]; listed as CDCA1-A1-9-21", "result": "potent IFN-gamma production"},
      {"measurement": "peptide-specific CTL activity (IFN-gamma production)", "setting": "[1]; listed as CDCA1-A11-9-21", "result": "potent IFN-gamma production; also recorded: significant specific CTL activity"}
    ]},
    {"sequence": "KINKKHEDVK (a peptide derived from CDCA1) [SEQ ID NO: 58]", "values": [
      {"measurement": "peptide-specific CTL activity (IFN-gamma production)", "setting": "[1]; listed as CDCA1-A1-10-358", "result": "potent IFN-gamma production"},
      {"measurement": "peptide-specific CTL activity (IFN-gamma production)", "setting": "[1]; listed as CDCA1-A11-10-358", "result": "significant specific CTL activity"},
      {"measurement": "peptide-specific CTL activity (IFN-gamma production)", "setting": "[1]; listed as CDCA1A11-10-358", "result": "potent IFN-gamma production"},
      {"measurement": "IFN-gamma production of CTL lines", "setting": "peptide-pulsed C1R-A11", "result": "potent IFN-gamma production"}
    ]},
    {"sequence": "KSNISEKTK (a peptide derived from CDCA1) [SEQ ID NO: 17]", "values": [
      {"measurement": "peptide-specific CTL activity (IFN-gamma production)", "setting": "[1]; listed as CDCA1-A11-9-213", "result": "potent IFN-gamma production; also recorded: significant specific CTL activity"}
    ]},
    {"sequence": "KTEENSFKR (a peptide derived from CDCA1) [SEQ ID NO: 19]", "values": [
      {"measurement": "peptide-specific CTL activity (IFN-gamma production)", "setting": "[1]; listed as CDCA1-A1-9-335", "result": "potent IFN-gamma production"},
      {"measurement": "peptide-specific CTL activity (IFN-gamma production)", "setting": "[1]; listed as CDCA1-A11-9-335", "result": "potent IFN-gamma production; also recorded: significant specific CTL activity"}
    ]},
    {"sequence": "NAAHQEALMK (a peptide derived from CDCA1) [SEQ ID NO: 45]", "values": [
      {"measurement": "peptide-specific CTL activity (IFN-gamma production)", "setting": "[1]; listed as CDCA1-A1-10-156", "result": "significant specific CTL activity"},
      {"measurement": "peptide-specific CTL activity (IFN-gamma production)", "setting": "[1]; listed as CDCA1-A11-10-156", "result": "potent IFN-gamma production"}
    ]},
    {"sequence": "NSFKRLMIVK (a peptide derived from CDCA1) [SEQ ID NO: 30]", "values": [
      {"measurement": "peptide-specific CTL activity (IFN-gamma production)", "setting": "[1]; listed as CDCA1-A11-10-339", "result": "potent IFN-gamma production; also recorded: significant specific CTL activity"},
      {"measurement": "IFN-gamma production of CTL lines", "setting": "peptide-pulsed C1R-A11", "result": "potent IFN-gamma production"}
    ]},
    {"sequence": "SFKRLMIVKK (a peptide derived from CDCA1) [SEQ ID NO: 53]", "values": [
      {"measurement": "peptide-specific CTL activity (IFN-gamma production)", "setting": "[1]; listed as CDCA1-A11-10-340", "result": "potent IFN-gamma production; also recorded: significant specific CTL activity"}
    ]},
    {"sequence": "SQEIFLNLK (a peptide derived from CDCA1) [SEQ ID NO: 6]", "values": [
      {"measurement": "peptide-specific CTL activity (IFN-gamma production)", "setting": "[1]; listed as CDCA1-A11-9-419", "result": "potent IFN-gamma production; also recorded: significant specific CTL activity"},
      {"measurement": "IFN-gamma production of CTL clones", "setting": "peptide-pulsed C1R-A11; CTL clones by limiting dilution, peptide-pulsed C1R-A11, listed as CDCA1-A11-9-419", "result": "Potent IFN-gamma production"},
      {"measurement": "IFN-gamma production of CTL lines", "setting": "peptide-pulsed C1R-A11", "result": "potent IFN-gamma production"}
    ]},
    {"sequence": "TADILCPKAK (a peptide derived from CDCA1) [SEQ ID NO: 56]", "values": [
      {"measurement": "peptide-specific CTL activity (IFN-gamma production)", "setting": "[1]; listed as CDCA1-A1-10-106", "result": "significant specific CTL activity"},
      {"measurement": "peptide-specific CTL activity (IFN-gamma production)", "setting": "[1]; listed as CDCA1-A11-10-106", "result": "potent IFN-gamma production"}
    ]},
    {"sequence": "TAELKRKMFK (a peptide derived from CDCA1) [SEQ ID NO: 35]", "values": [
      {"measurement": "peptide-specific CTL activity (IFN-gamma production)", "setting": "[1]; listed as CDCA1-A11-10-452", "result": "potent IFN-gamma production; also recorded: significant specific CTL activity"}
    ]},
    {"sequence": "VTTINQEIQK (a peptide derived from CDCA1) [SEQ ID NO: 33]", "values": [
      {"measurement": "peptide-specific CTL activity (IFN-gamma production)", "setting": "[1]; listed as CDCA1-A1-10-391", "result": "no specific IFN-gamma production"},
      {"measurement": "peptide-specific CTL activity (IFN-gamma production)", "setting": "[1]; listed as CDCA1-A11-10-391", "result": "specific IFN-gamma production was not observed"}
    ]}
  ]
}
